Experimental data from article PMC9457941, “Synthesis and Kinase Inhibitory Potencies of Pyrazolo[3,4-g]isoquinolines” (Molecules, 2022).
pIC50: −log10 of the molar value.

Assays:
Type in all cases: biochemical
CDK5/p25 = biological target: T1, CDK5/p25 (Homo sapiens, UniProt Q00535); assay: ADP-Glo kinase inhibition assay, CDK5/p25; details: for remaining activity at 1 µM: read-out: CDK5 % residual activity at 1 μM; for remaining activity at 10 µM: read-out: CDK5 % residual activity at 10 μM
T1 construct: host or cells: bacteria
T1 sequence (Q00535 whole entry): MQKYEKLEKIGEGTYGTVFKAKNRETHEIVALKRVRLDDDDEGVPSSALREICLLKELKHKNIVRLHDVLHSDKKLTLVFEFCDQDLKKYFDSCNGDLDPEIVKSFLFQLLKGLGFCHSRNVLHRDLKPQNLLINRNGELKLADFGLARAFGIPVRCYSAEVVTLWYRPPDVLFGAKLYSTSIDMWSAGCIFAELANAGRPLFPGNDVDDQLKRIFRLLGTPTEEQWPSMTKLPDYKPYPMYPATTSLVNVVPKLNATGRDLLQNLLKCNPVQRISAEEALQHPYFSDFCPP
T1 sequence (Q15078 99-307, further chain): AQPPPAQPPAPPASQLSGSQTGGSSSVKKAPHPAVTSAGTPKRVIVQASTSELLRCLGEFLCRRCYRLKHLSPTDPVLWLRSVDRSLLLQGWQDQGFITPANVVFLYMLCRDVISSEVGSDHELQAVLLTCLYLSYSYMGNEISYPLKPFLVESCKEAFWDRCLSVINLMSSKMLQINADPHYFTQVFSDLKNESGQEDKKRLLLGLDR
Description: (§1) Kinase enzymatic activities were assayed in 384 well plates using the ADP-GloTM assay kit (Promega, Madison, WI, USA) according to the manufacturer’s guidance. Briefly, the reactions were carried out in a final volume of 6 μL for 30 min at 30 °C in an appropriate kinase buffer (10 mM MgCl2, 1 mM EGTA, 1 mM DTT, 25 mM Tris-HCl pH 7.5, 50 μg/mL heparin), with either protein or peptide as substrate in the presence of 10 μM ATP (40 mM Tris pH 7.5, 20 mM MgCl2 and 0.1 mg/mL of BSA). Afterward, 6 μL of ADP-GloTM Kinase Reagent was added to stop the kinase reaction. After an incubation time of 50 min at room temperature (RT), 12 μL of Kinase Detection Reagent was added for 1 h at RT. The transmitted signal was measured using the Envision (Perkin Elmer, Waltham, MA, USA) microplate luminometer and expressed in relative light unit (RLU). In order to determine the half maximal inhibitory concentration (IC50), the assays were performed in duplicate in the absence or presence of increasing doses of the tested compounds. GraphPad Prism6 software (GraphPad Software, San Diego, CA, USA) was used to fit dose–response curves and to determine the IC50 values. Kinase activities are expressed in the percentage of maximal activity, i.e., measured in the absence of an inhibitor. Peptide substrates were obtained from Proteogenix (Schiltigheim, France).
(§2) The following protein kinases were analyzed in this study: CDK5/p25 (human, recombinant, expressed in bacteria) was assayed with 0.8 μg/μL of histone H1 as substrate; CDK9/CyclinT (human, recombinant, expressed by baculovirus in Sf9 insect cells) were assayed with 0.27 μg/μL of the following peptide: […], as substrate; CK1ε (human, recombinant, expressed by baculovirus in Sf9 insect cells) was assayed with 0.022 μg/μL of the following peptide: […]pAYSITA (“Sp” stands for phosphorylated serine) as CK1-specific substrate; GSK3β (human, recombinant, expressed by baculovirus in Sf9 insect cells) were assayed with 0.010 μg/μL of GS-1 peptide, a GSK-3-selective substrate ([…]pEDEEE); Haspin-kd (human, kinase domain, amino acids 470–798, recombinant, expressed in bacteria) was assayed with 0.007 μg/μL of histone H3 (1–21) peptide ([…]) as substrate; Pim-1 (human proto-oncogene, recombinant, expressed in bacteria) was assayed with 0.8 μg/μL of histone H1 as substrate; MmCLK1 (from Mus musculus, recombinant, expressed in bacteria) was assayed with 0.027 μg/μL of the following peptide: […] as substrate; RnDYRK1A-kd (Rattus norvegicus, amino acids 1–499 including the kinase domain, recombinant, expressed in bacteria, DNA vector kindly provided by Dr. W. Becker, Aachen, Germany) was assayed with 0.033 μg/μL of the following peptide: […] as substrate.

[1] = biological target: T2, Haspin-kd (human, kinase domain, amino acids 470–798) (Homo sapiens, UniProt Q8TF76); assay: ADP-Glo kinase inhibition assay, Haspin; details: for pIC50: 10 μM ATP, duplicate; for remaining activity at 1 µM: read-out: Haspin % residual activity at 1 μM; for remaining activity at 10 µM: read-out: Haspin % residual activity at 10 μM
T2 construct: Haspin-kd (human, kinase domain, amino acids 470–798, recombinant, expressed in bacteria); host or cells: bacteria
T2 sequence (Q8TF76 470-798): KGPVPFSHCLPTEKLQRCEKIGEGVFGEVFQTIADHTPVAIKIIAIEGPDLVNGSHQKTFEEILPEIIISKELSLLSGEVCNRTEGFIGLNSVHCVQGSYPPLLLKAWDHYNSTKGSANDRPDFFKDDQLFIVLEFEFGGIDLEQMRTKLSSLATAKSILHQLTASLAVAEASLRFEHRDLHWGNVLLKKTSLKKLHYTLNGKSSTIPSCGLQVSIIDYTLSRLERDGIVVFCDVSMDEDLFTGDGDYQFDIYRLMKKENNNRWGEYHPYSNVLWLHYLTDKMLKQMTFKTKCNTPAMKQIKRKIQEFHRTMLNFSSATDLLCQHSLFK
Description: as §1

CDK9/CyclinT = biological target: T3, CDK9/CyclinT (Homo sapiens, UniProt P50750); assay: ADP-Glo kinase inhibition assay, CDK9/CyclinT; details: for remaining activity at 1 µM: read-out: CDK9 % residual activity at 1 μM; for remaining activity at 10 µM: read-out: CDK9 % residual activity at 10 μM; for pIC50: 10 μM ATP, duplicate
T3 construct: host or cells: Sf9 insect cells (baculovirus)
T3 sequence (O60563 whole entry): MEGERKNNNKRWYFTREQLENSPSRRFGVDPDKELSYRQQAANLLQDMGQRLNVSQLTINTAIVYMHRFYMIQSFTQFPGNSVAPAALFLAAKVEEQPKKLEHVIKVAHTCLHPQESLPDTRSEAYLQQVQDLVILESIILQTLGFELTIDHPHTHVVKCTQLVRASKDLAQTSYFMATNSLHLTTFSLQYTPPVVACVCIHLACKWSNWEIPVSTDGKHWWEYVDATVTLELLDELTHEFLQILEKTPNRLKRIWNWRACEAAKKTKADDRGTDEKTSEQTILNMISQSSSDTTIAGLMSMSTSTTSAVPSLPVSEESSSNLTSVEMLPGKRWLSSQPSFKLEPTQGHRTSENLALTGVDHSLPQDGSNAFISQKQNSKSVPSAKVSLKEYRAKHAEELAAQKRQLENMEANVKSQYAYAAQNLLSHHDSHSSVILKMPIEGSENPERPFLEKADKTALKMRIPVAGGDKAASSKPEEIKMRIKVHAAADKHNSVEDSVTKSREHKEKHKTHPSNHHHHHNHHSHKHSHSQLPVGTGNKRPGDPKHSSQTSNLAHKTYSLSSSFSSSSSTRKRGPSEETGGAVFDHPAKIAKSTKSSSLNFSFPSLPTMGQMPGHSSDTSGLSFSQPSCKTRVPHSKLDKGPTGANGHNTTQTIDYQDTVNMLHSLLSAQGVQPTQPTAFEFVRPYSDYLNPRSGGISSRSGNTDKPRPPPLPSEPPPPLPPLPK
T3 sequence (P50750 whole entry): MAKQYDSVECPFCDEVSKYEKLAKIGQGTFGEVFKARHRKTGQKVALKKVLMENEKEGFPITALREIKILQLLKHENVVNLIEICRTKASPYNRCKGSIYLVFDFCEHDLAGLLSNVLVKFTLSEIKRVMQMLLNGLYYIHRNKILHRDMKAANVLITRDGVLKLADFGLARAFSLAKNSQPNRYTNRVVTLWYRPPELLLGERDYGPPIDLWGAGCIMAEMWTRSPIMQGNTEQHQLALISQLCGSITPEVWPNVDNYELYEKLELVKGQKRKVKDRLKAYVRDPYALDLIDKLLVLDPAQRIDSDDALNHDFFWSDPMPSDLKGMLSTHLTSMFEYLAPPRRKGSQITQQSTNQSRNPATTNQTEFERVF
Description: as §1, §2

RnDYRK1A-kd = biological target: T4, RnDYRK1A-kd (Rattus norvegicus, UniProt Q63470); assay: ADP-Glo kinase inhibition assay, DYRK1A; details: for remaining activity at 1 µM: read-out: DYRK1A % residual activity at 1 μM; for remaining activity at 10 µM: read-out: DYRK1A % residual activity at 10 μM
T4 construct: RnDYRK1A-kd (Rattus norvegicus, amino acids 1–499 including the kinase domain, recombinant, expressed in bacteria); made in house; host or cells: bacteria
Description: as §1, §2

MmCLK1 = biological target: T5, MmCLK1 (Mus musculus, UniProt P22518); assay: ADP-Glo kinase inhibition assay, CLK1; details: for pIC50: 10 μM ATP, duplicate, read-out: CLK1 IC50; for remaining activity at 1 µM: read-out: CLK1 % residual activity at 1 μM; for remaining activity at 10 µM: read-out: CLK1 % residual activity at 10 μM
T5 construct: host or cells: bacteria
T5 sequence (P22518 whole entry): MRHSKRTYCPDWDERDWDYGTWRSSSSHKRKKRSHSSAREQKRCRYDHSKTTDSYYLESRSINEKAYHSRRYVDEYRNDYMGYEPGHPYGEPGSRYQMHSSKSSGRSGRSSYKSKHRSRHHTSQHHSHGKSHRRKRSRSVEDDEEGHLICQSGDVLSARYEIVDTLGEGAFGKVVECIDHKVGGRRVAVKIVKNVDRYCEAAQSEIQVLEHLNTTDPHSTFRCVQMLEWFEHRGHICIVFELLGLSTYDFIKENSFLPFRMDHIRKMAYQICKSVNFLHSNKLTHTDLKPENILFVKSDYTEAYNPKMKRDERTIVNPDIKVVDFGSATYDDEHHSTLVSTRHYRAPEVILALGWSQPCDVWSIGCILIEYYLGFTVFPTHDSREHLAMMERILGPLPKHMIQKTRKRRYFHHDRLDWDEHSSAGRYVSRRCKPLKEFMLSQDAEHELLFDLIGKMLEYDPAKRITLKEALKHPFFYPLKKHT
Description: as §1, §2

Pim-1 = biological target: T6, Pim-1 (Homo sapiens, UniProt P11309); assay: ADP-Glo kinase inhibition assay, Pim-1; details: 10 μM ATP, duplicate; for remaining activity at 1 µM: 1 μM compound, read-out: PIM1 % residual activity at 1 μM; for remaining activity at 10 µM: 10 μM compound, read-out: PIM1 % residual activity at 10 μM
T6 construct: host or cells: bacteria
T6 sequence (P11309 whole entry): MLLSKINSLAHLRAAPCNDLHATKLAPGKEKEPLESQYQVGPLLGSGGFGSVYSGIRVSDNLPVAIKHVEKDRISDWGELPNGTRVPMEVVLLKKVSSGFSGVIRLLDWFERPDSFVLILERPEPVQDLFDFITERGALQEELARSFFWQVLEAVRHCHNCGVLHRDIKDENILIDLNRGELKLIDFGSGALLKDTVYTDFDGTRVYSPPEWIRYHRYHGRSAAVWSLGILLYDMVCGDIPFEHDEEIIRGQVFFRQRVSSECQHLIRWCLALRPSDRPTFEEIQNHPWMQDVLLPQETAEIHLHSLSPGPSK
Description: as §1, §2

CK1ε = biological target: T7, CK1ε (Homo sapiens, UniProt P49674); assay: ADP-Glo kinase inhibition assay, CK1ε; details: 10 μM ATP, duplicate; for remaining activity at 1 µM: 1 μM compound, read-out: CK1 % residual activity at 1 μM; for remaining activity at 10 µM: 10 μM compound, read-out: CK1 % residual activity at 10 μM
T7 construct: host or cells: Sf9 insect cells (baculovirus)
T7 sequence (P49674 whole entry): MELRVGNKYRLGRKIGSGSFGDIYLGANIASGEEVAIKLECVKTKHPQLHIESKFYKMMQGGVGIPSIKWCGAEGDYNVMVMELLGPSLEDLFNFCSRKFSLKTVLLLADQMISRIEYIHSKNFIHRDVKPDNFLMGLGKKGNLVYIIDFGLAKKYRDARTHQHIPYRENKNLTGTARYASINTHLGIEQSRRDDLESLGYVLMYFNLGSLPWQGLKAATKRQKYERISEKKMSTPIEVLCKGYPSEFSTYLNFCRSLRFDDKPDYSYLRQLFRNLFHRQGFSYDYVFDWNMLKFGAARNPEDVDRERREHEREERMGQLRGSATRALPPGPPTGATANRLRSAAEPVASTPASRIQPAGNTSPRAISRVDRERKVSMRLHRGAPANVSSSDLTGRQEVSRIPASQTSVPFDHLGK
Description: as §1, §2

GSK3β = biological target: T8, GSK3β (Homo sapiens, UniProt P49841); assay: ADP-Glo kinase inhibition assay, GSK3β; details: for remaining activity at 1 µM: read-out: GSK3 % residual activity at 1 μM; for remaining activity at 10 µM: read-out: GSK3 % residual activity at 10 μM; for pIC50: 10 μM ATP, duplicate, read-out: GSK3 IC50
T8 construct: host or cells: Sf9 insect cells (baculovirus)
T8 sequence (P49841 whole entry): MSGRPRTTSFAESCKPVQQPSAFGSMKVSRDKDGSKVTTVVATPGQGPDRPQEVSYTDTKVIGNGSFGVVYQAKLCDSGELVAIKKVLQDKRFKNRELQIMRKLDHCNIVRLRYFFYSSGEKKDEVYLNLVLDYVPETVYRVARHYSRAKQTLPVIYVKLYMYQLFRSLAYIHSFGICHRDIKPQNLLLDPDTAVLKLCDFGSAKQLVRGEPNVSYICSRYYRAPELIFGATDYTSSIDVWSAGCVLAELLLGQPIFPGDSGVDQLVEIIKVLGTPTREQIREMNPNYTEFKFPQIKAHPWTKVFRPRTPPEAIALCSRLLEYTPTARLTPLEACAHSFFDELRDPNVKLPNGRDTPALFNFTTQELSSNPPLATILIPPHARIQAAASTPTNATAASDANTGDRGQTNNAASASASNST
Description: as §1, §2

| SMILES | remaining activity at 1 µM (CDK5/p25) [%] | remaining activity at 10 µM (CDK5/p25) [%] | pIC50 [1] | remaining activity at 1 µM [1] [%] | remaining activity at 10 µM [1] [%] | remaining activity at 1 µM (CDK9/CyclinT) [%] | remaining activity at 10 µM (CDK9/CyclinT) [%] | remaining activity at 1 µM (RnDYRK1A-kd) [%] | remaining activity at 10 µM (RnDYRK1A-kd) [%] | pIC50 (MmCLK1) | remaining activity at 1 µM (MmCLK1) [%] | remaining activity at 10 µM (MmCLK1) [%] | remaining activity at 1 µM (Pim-1) [%] | remaining activity at 10 µM (Pim-1) [%] | remaining activity at 1 µM (CK1ε) [%] | remaining activity at 10 µM (CK1ε) [%] | remaining activity at 1 µM (GSK3β) [%] | remaining activity at 10 µM (GSK3β) [%] | pIC50 (CDK9/CyclinT) | pIC50 (GSK3β) | also measured |
| --- | --- | --- | --- | --- | --- | --- | --- | --- | --- | --- | --- | --- | --- | --- | --- | --- | --- | --- | --- | --- | --- |
| CCn1ncc2cc3cnccc3c(N)c21 [Compound 2c, 1-Ethyl-1H-pyrazolo[3,4-g]isoquinolin-9-amine] | 65 | 28 | 7.21 | 17 | 3 | 80 | 50 | 23 | 6 | 6.25 | 34 | 8 | 91 | 60 | 84 | 48 | 82 | 40 | – | – | Selectivity Index (SI) Haspin vs. DYRK1A ([1]; Haspin vs. DYRK1A, which was more inhibited than CLK1): 4.0; pIC50 (RnDYRK1A-kd; 10 μM ATP, duplicate, read-out: DYRK1A IC50): 6.60 |
| CCn1ncc2c(C)c3cnccc3c([N+](=O)[O-])c21 [Compound 3a, 1-Ethyl-4-methyl-9-nitro-1H-pyrazolo[3,4-g]isoquinoline] | 64 | 35 | 6.78 | 20 | 8 | 43 | 14 | 73 | 13 | 7.00 | 13 | 0 | 100 | 97 | 89 | 45 | 39 | 9 | 6.10 | 5.97 | – |
| CCc1c2cnccc2c([N+](=O)[O-])c2c1cnn2CC [Compound 3b, 1,4-Diethyl-9-nitro-1H-pyrazolo[3,4-g]isoquinoline] | 33 | 16 | – | 63 | 10 | 25 | 0 | 100 | 9 | – | 19 | 0 | 100 | 89 | 82 | 25 | 28 | 3 | – | – | inhibition at 1 µM ([1]; read-out: Haspin inhibition at 1 μM, 1 μM compound, % inhibition): ≤ 50% |
| CCCc1c2cnccc2c([N+](=O)[O-])c2c1cnn2CC [Compound 3c, 1-Ethyl-9-nitro-4-propyl-1H-pyrazolo[3,4-g]isoquinoline] | 54 | 10 | 6.30 | 25 | 17 | 18 | 4 | 95 | 41 | 6.44 | 23 | 4 | 86 | 88 | 81 | 35 | 12 | 5 | 6.49 | 6.66 | – |
